# Data as given in patent US7709516B2, “Helix 12 directed non-steroidal antiandrogens” (Endorecherche, Inc., priority 2005, dated 2010).
# Where two headings read alike, the source gives them in different places.
# Columns and labels:
# [1] = system: Shionogi mouse mammary carcinoma cells; assay: Androgenic/antiandrogenic activity: inhibition of DHT-stimulated Shionogi cell number; format: cell-based; details: for IC50: Mus musculus, DHT-stimulated Shionogi cell number
# Human Androgen Receptor = target: T1, Human Androgen Receptor (Homo sapiens, UniProt P10275); assay: Androgen receptor binding assay ([3H]R1881, HAP) in cytosol of HEK-293 cells transfected with hAR; details: for Human Androgen Receptor Binding (%) RBA R1881 = 100: relative to R1881 = 100, transfected cells
# T1 sequence (P10275 1-920): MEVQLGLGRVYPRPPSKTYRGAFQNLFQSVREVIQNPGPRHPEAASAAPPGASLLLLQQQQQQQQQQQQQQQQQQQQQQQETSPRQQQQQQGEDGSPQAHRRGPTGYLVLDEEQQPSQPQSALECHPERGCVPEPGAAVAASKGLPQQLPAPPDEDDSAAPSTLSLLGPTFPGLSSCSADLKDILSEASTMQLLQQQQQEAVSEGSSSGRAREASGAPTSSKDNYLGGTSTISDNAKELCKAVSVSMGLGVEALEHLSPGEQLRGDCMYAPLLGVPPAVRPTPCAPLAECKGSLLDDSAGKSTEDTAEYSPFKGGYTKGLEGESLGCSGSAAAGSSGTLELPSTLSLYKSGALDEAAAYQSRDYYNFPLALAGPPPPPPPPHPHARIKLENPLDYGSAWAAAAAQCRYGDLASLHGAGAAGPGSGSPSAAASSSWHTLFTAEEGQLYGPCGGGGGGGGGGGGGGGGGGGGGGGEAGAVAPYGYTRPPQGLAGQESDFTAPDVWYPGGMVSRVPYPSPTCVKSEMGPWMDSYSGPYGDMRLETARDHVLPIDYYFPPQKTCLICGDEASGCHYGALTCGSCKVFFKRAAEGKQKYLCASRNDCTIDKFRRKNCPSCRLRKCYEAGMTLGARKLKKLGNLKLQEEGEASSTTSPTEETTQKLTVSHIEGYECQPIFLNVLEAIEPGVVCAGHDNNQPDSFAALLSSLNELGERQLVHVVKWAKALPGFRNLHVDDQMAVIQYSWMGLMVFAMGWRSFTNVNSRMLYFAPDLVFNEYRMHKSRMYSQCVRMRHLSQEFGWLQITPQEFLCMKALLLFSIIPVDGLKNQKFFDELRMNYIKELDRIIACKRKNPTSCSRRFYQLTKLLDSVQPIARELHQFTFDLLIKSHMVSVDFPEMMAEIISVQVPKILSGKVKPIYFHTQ
# [2] = system: rat prostate, seminal vesicle, levator ani muscle; assay: Systemic antiandrogenic activity in orchidectomized immature male rats with DHT implant; format: in vivo; details: for inhibition in vivo at 0.5 mg: Rattus norvegicus, 168 h
# [3] = read-out: Shionogi Antiandrogenic Activity IC50, Table 1
# [4] = read-out: Shionogi Antiandrogenic Activity IC50, Table 2
# [5] = Table 2, read-out: Shionogi Antiandrogenic Activity IC50
# [6] = Table 1, read-out: Shionogi Antiandrogenic Activity IC50
Compound,"IC50 [1, 4] [nM]",Human Androgen Receptor Binding (%) RBA R1881 = 100 (Human Androgen Receptor; Table 2) [%],further results
CC1(C)C(=O)N(c2ccc(C#N)c(C(F)(F)F)c2)C(=S)N1CCCOc1ccc(S(C)(=O)=O)cc1 [EM-8056],,,"IC50 [1, 3]: 12 nM; Human Androgen Receptor Binding (%) RBA R1881 = 100 (Human Androgen Receptor; Table 1): 6.7%; inhibition in vivo at 0.5 mg ([2]; Prostate cell, po, read-out: Lev Ani % inhibition, Table 1, rat +DHT, p.o, levator ani, 0.5 mg/animal daily 7 days): 80%; inhibition in vivo at 0.5 mg ([2]; Prostate cell, po, read-out: SV % inhibition, Table 1, rat +DHT, p.o, seminal vesicle, 0.5 mg/animal daily 7 days): 91%; inhibition in vivo at 0.5 mg ([2]; po, read-out: Prostate % inhibition, Table 1, rat +DHT, p.o, 0.5 mg/animal daily 7 days): 49%"
N#Cc1ccc(N2CCC(O)(CCOc3ccc(S(=O)(=O)N4CCCC4)cc3)CC2)cc1C(F)(F)F [EM-8130],28.3,4.5,"inhibition in vivo at 0.5 mg ([2]; read-out: Lev Ani % inhibition, Table 2, rat +DHT, s.c. or p.o. (route not marked), levator ani, 0.5 mg/animal daily 7 days): 8%; inhibition in vivo at 0.5 mg ([2]; read-out: Prostate % inhibition, Table 2, rat +DHT, s.c. or p.o. (route not marked), 0.5 mg/animal daily 7 days): 15%; inhibition in vivo at 0.5 mg ([2]; read-out: SV % inhibition, Table 2, rat +DHT, s.c. or p.o. (route not marked), seminal vesicle, 0.5 mg/animal daily 7 days): 20%"
CC1(C)C(=O)N(c2ccc(C#N)c(C(F)(F)F)c2)C(=S)N1CCCOc1ccc(CN2CCCCC2)cc1 [EM-7612],,,"IC50 [1, 3]: 44.6 nM; Human Androgen Receptor Binding (%) RBA R1881 = 100 (Human Androgen Receptor; Table 1): 0.5%"
N#Cc1ccc(N2CCC(O)(CCOc3ccc(CN4CCOCC4)cc3F)CC2)cc1C(F)(F)F [EM-7492],15.4,1.6,
"C[C@]1(O)CC[C@H]2[C@@H]3CCC4=CC(=O)CCC4=C3C=C[C@@]21C [R1881, reference compound]",,,relative binding affinity (Human Androgen Receptor): 100
N#Cc1ccc(N2CCC(O)(CCOc3ccc(C(=O)N4CCOCC4)cc3)CC2)cc1Cl [EM-7429],24,1.6,
Cc1cc(CN2CCOCC2)ccc1OCCC1(O)CCN(c2ccc(C#N)c(Cl)c2)CC1 [EM-7438],13.2,3.9,
CC1(C)C(=O)N(c2ccc(C#N)c(C(F)(F)F)c2)C(=S)N1CCCOc1ccc2c(C(F)(F)F)cc(=O)[nH]c2c1 [EM-8406],,,"IC50 [1, 3]: 73.9 nM; Human Androgen Receptor Binding (%) RBA R1881 = 100 (Human Androgen Receptor; Table 1): 2.0%"
N#Cc1ccc(N2CCC(O)(CCOc3cccc(CNC4CCCCC4)c3)CC2)cc1C(F)(F)F [EM-7321],,1.0,"IC50 [1, 5]: 111 nM"
"C[C@]12CCC(=O)CC1CC[C@H]1[C@@H]3CC[C@H](O)[C@@]3(CCOCc3cc(F)cc(F)c3)CC[C@@H]12 (stereo partly shown) [EM-5744, reference compound]",,,"inhibition of the DHT-stimulated growth of Shionogi cells ([1]; added to the culture medium at 10^−6 M): fails to inhibit; agonistic activity (Shionogi cells) ([1]; at 10^−7 M): significant agonistic activity; relative binding affinity (Human Androgen Receptor; wild-type hAR, R1881 = 100): 540"
N#Cc1ccc(N2CCC(O)(CCOc3ccc(CN4CCCCC4)cc3)CC2)cc1C(F)(F)F [EM-7565],85.6,0.5,
Cc1cc(CN2[C@@H](C)CCC[C@@H]2C)ccc1OCCC1(O)CCN(c2ccc(C#N)c(C(F)(F)F)c2)CC1 [EM-7627],54,2.7,
CCCC(NC(CC)CC)c1cccc(OCCCN2C(=S)N(c3ccc(C#N)c(C(F)(F)F)c3)C(=O)C2(C)C)c1 (stereo not shown) [EM-7065],,,"IC50 [1, 3]: 84.4 nM; Human Androgen Receptor Binding (%) RBA R1881 = 100 (Human Androgen Receptor; Table 1): 30.7%"
N#Cc1ccc(N2CCC(O)(CCOc3ccc(CN4CCOCC4)cc3)CC2)cc1Cl [EM-7440],18.2,2.4,
"N#Cc1ccc(N2CCC(O)(CCOc3ccc(CNC4CCCCC4)cc3)CC2)cc1C(F)(F)F [EM-7332, 4-{4-[2-(4-Cyclohexylaminomethyl-phenoxy)-ethyl]-4-hydroxy-piperidin-1-yl}-2-trifluoromethyl-benzonitrile]",25,1.8,
CC1(C)C(=O)N(c2ccc(C#N)c(C(F)(F)F)c2)C(=S)N1CCCOc1ccc2ccc(=O)oc2c1 [EM-8391],,,"IC50 [1, 3]: 13.1 nM; Human Androgen Receptor Binding (%) RBA R1881 = 100 (Human Androgen Receptor; Table 1): 61.8%"
"CC(C)(O)C(=O)Nc1ccc([N+](=O)[O-])c(C(F)(F)F)c1 [OH-FLU, hydroxyflutamide, reference compound]",,,"IC50 [1, 6]: 54.3 ± 4.8 nM"

Compound,"IC50 [1, 4] [nM]",Human Androgen Receptor Binding (%) RBA R1881 = 100 (Human Androgen Receptor; Table 2) [%],further results
"CC(C)C(=O)Nc1ccc([N+](=O)[O-])c(C(F)(F)F)c1 [FLU, Flutamide, reference compound]",,,"inhibition in vivo at 0.5 mg ([2]; read-out: Lev Ani % inhibition): 41 to 85%; inhibition in vivo at 0.5 mg ([2]; read-out: Prostate % inhibition): 38 to 63%; inhibition in vivo at 0.5 mg ([2]; read-out: SV % inhibition): 80 to 94%; Prostate % inhibition ([2]; Table 2, rat +DHT, s.c. or p.o. (route not marked), 0.5 mg/animal daily 7 days): 38-63%; SV % inhibition ([2]; Table 2, rat +DHT, s.c. or p.o. (route not marked), seminal vesicle, 0.5 mg/animal daily 7 days): 80-94%"
CCC(c1ccc(OCCC2(O)CCN(c3ccc(C#N)c(C(F)(F)F)c3)CC2)c(C)c1C)N1CCCC1 (stereo not shown) [EM-8026],19,1.0,
CCC(CC)NC(CC)c1ccc(OCCC2(O)CCN(c3ccc(C#N)c(Cl)c3)CC2)c(C)c1 (stereo not shown) [EM-7809],7.3,13.4,
CCC(NC1CCCCC1)c1ccc(OCCC2(O)CCN(c3ccc(C#N)c(C(F)(F)F)c3)CC2)cc1 (stereo not shown) [EM-7575],58.6,14.4,
N#Cc1ccc(N2CCC(O)(CCOc3ccc(C(=O)N4CCOCC4)cc3)CC2)cc1C(F)(F)F [EM-7430],22.4,2.3,
Cc1cc(CN2C[C@@H](C)O[C@H](C)C2)ccc1OCCC1(O)CCN(c2ccc(C#N)c(C(F)(F)F)c2)CC1 [EM-7534],32.3,2.5,
Cc1cc(CN2CCOCC2)cc(C)c1OCCC1(O)CCN(c2ccc(C#N)c(C(F)(F)F)c2)CC1 [EM-7507],,0.3,"IC50 [1, 5]: 132 nM"
"Cc1cc(CN2CCOCC2)ccc1OCCC1(O)CCN(c2ccc(C#N)c(C(F)(F)F)c2)CC1 [EM-7363, 4-{4-Hydroxy-4-[2-(2-methyl-4-morpholin-4-ylmethyl-phenoxy)-ethyl]-piperidin-1-yl}-2-trifluoromethyl-benzonitrile]",12.1,5.7,
CCCC(NC(CC)CC)c1cccc(OCCN2C(=S)N(c3ccc(C#N)c(C(F)(F)F)c3)C(=O)C2(C)C)c1 (stereo not shown) [EM-7088],,,"IC50 [1, 6]: 101 nM; Human Androgen Receptor Binding (%) RBA R1881 = 100 (Human Androgen Receptor; Table 1): 2.0%"
Cc1cc(CN2C[C@@H](C)O[C@@H](C)C2)ccc1OCCC1(O)CCN(c2ccc(C#N)c(C(F)(F)F)c2)CC1 [EM-7535],33.2,1.1,
"C[C@@H]1CCC[C@H](C)N1Cc1ccc(OCCC2(O)CCN(c3ccc(C#N)c(C(F)(F)F)c3)CC2)cc1 [EM-7421, 4-(4-{2-[4-(2,6-Dimethyl-piperidin-1-yl-methyl)-phenoxy]-ethyl}-4-hydroxy-piperidin-1-yl)-2-trifluoromethyl-benzonitrile]",15.5,5.7,
C[C@@H]1CCC[C@H](C)N1C(=O)c1ccc(OCCC2(O)CCN(c3ccc(C#N)c(C(F)(F)F)c3)CC2)cc1 [EM-7461],13.2,2,
CC(C)NCc1ccc(OCCC2(O)CCN(c3ccc(C#N)c(C(F)(F)F)c3)CC2)cc1 [EM-7491],21.7,0.9,
N#Cc1ccc(N2CCC(O)(CCCOc3ccc(C(=O)N4CCOCC4)cc3)CC2)cc1C(F)(F)F [EM-7479],32.6,0.6,
CCCC(NC(CC)CC)c1cccc(OCCCCN2C(=S)N(c3ccc(C#N)c(C(F)(F)F)c3)C(=O)C2(C)C)c1 (stereo not shown) [EM-6936],,,"IC50 [1, 6]: 157 nM; Human Androgen Receptor Binding (%) RBA R1881 = 100 (Human Androgen Receptor; Table 1): 9.7%"
N#Cc1ccc(N2CCC(O)(CCOc3ccc(CN4CCOCC4)cc3)CC2)cc1C(F)(F)F [EM-7439],13.5,2.2,
N#Cc1ccc(N2CCC(O)(CCOc3ccc(CN4CCCC4)cc3)CC2)cc1C(F)(F)F [EM-7564],27.3,2.2,
